Test results from the NIST ThermoML archive (doi:10.1021/acs.jced.5b00260).
Numbers after ± are expanded uncertainties.

Assay: mn = molality of the nth substance listed, in mol/kg
Settings: 100 kPa, Liquid, Vibrating tube method

## C[C@H](N)C(=O)O [(S)-2-aminopropanoic acid] + O
298.2 K, m1 = 0.1
  mass density: 999.9 ± 0.2 kg/m3
298.2 K, m1 = 0.2
  mass density: 1002.7 ± 0.2 kg/m3
298.2 K, m1 = 0.3
  mass density: 1005.5 ± 0.2 kg/m3
298.2 K, m1 = 0.4
  mass density: 1008.2 ± 0.2 kg/m3
303.2 K, m1 = 0.1
  mass density: 998.4 ± 0.2 kg/m3
303.2 K, m1 = 0.2
  mass density: 1001.9 ± 0.2 kg/m3
303.2 K, m1 = 0.3
  mass density: 1004.1 ± 0.2 kg/m3
303.2 K, m1 = 0.4
  mass density: 1006.8 ± 0.2 kg/m3
308.2 K, m1 = 0.1
  mass density: 996.8 ± 0.2 kg/m3
308.2 K, m1 = 0.2
  mass density: 1000.1 ± 0.2 kg/m3
308.2 K, m1 = 0.3
  mass density: 1002.3 ± 0.2 kg/m3
308.2 K, m1 = 0.4
  mass density: 1004.1 ± 0.2 kg/m3
